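Interpolation was linear, between the two tested concentrations surrounding the appropriate level; five concentrations were tested over 48 hours in 96-well plates. The concentration for 50% growth inhibition is given as GI50.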 Activity calls are given as the source filed them. Cut-off read from the data, not from the text of the source: active = GI50 up to about 1.1 µM and inactive = higher.
How the values were obtained:
Test in all cases: NCI-60 cell line screen, 48 h
[1] = tested on: BT-549
[2] = tested on: CAKI-1
[3] = tested on: DU-145
[4] = tested on: HL-60
[5] = tested on: K562
[6] = tested on: LOX IMVI
[7] = tested on: MCF7
[8] = tested on: MDA-MB-231
[9] = tested on: MDA-N
[10] = tested on: NCI-H226
[11] = tested on: NCI-H460
[12] = tested on: OVCAR-5
[13] = tested on: OVCAR-8
[14] = tested on: PC-3
[15] = tested on: RPMI-8226
[16] = tested on: SK-MEL-28
[17] = tested on: SK-MEL-2
[18] = tested on: SN12C
[19] = tested on: UACC-62

Measured: GI50

O=C(O)C(Cl)(c1ccccc1)c1ccccc1
inactive: [1] > 100 µM | [2] > 100 µM | [3] > 100 µM | [4] > 100 µM | [5] 83 µM | [6] > 100 µM | [7] > 100 µM | [8] > 100 µM | [9] > 100 µM | [10] > 100 µM | [11] > 100 µM | [12] > 100 µM | [13] > 100 µM | [14] > 100 µM | [15] > 100 µM | [16] > 100 µM | [17] > 100 µM | [18] > 100 µM | [19] > 100 µM

CCOC(=O)c1ccc(C(=O)C(C(C)=O)C(=O)OC(C)(C)C)n1C (stereo not given)
inactive: [1] > 100 µM | [2] > 100 µM | [3] > 100 µM | [4] 67.9 µM | [5] > 100 µM | [6] > 100 µM | [7] > 100 µM | [8] > 100 µM | [9] > 100 µM | [10] > 100 µM | [11] > 100 µM | [12] > 100 µM | [13] > 100 µM | [14] > 100 µM | [15] > 100 µM | [16] > 100 µM | [17] > 100 µM | [18] > 100 µM | [19] > 100 µM

O=C(O)c1ccc(C2=Nc3cccc4cccc(c34)N2)cc1
inactive: [1] > 100 µM | [2] > 100 µM | [3] > 100 µM | [4] 19.6 µM | [5] > 100 µM | [6] > 100 µM | [7] > 100 µM | [8] > 100 µM | [9] > 100 µM | [10] > 100 µM | [11] > 100 µM | [13] > 100 µM | [14] > 100 µM | [15] > 100 µM | [16] > 100 µM | [17] > 100 µM | [18] > 100 µM | [19] > 100 µM

CCCCc1cc2c(C)cc(=O)oc2c(O)c1O
inactive: [1] 14.6 µM | [2] 23.4 µM | [3] 32.2 µM | [4] 18.1 µM | [5] 27.4 µM | [6] 20.5 µM | [7] 21.4 µM | [8] 13.6 µM | [9] 38.5 µM | [10] 23.9 µM | [11] 22.6 µM | [12] 69.7 µM | [13] 31.6 µM | [14] 21.3 µM | [15] 17.5 µM | [16] 37.3 µM | [17] 3.6 µM | [18] 32.4 µM

Cc1cc2nc(CC(C(F)(F)F)C(F)(F)F)oc2cc1C
inactive: [2] 2.07 µM | [3] 4.36 µM | [7] 2.54 µM | [8] 2.45 µM | [9] 1.91 µM | [10] 1.88 µM | [11] 3.77 µM | [12] 7.41 µM | [14] 1.96 µM | [16] 3.24 µM | [17] 2.81 µM | [19] 1.42 µM
active: [1] 0.452 µM | [4] 0.968 µM | [5] 0.0931 µM | [6] 0.209 µM | [13] 1.12 µM | [15] 0.0931 µM | [18] 1.03 µM

C/C(=N/O)c1cccc(Nc2nc3ccc(Cl)cc3c3[nH]c4ccccc4c23)c1
inactive: [1] 2.93 µM | [2] 2.24 µM | [4] 3.07 µM | [5] 2.02 µM | [6] 1.91 µM | [8] 2.59 µM | [9] 1.71 µM | [10] 2.69 µM | [11] 1.14 µM | [12] 2.07 µM | [13] 1.93 µM | [14] 1.79 µM | [15] 1.66 µM | [16] 2.12 µM | [17] 1.93 µM | [18] 2.51 µM | [19] 1.83 µM
active: [3] 0.261 µM | [7] 0.935 µM

CC(=O)Nc1ccc(Nc2nc(=O)[nH]c(=O)[nH]2)cc1
inactive: [1] > 100 µM | [2] > 100 µM | [3] > 100 µM | [4] > 100 µM | [6] > 100 µM | [7] > 100 µM | [8] > 100 µM | [9] > 100 µM | [10] > 100 µM | [11] > 100 µM | [12] > 100 µM | [13] > 100 µM | [14] > 100 µM | [15] > 100 µM | [16] > 100 µM | [17] > 100 µM | [18] > 100 µM | [19] > 100 µM

C=CCNC(=S)N/C=C(/C(C)=O)C(=O)Nc1ccccc1C
inactive: [1] > 100 µM | [2] > 100 µM | [3] > 100 µM | [4] > 100 µM | [5] > 100 µM | [6] > 100 µM | [7] > 100 µM | [8] > 100 µM | [9] > 100 µM | [10] > 100 µM | [11] > 100 µM | [12] > 100 µM | [13] > 100 µM | [14] > 100 µM | [15] 4.76 µM | [17] > 100 µM | [18] > 100 µM | [19] > 100 µM

CCOC(=O)c1ccc2c(c1)Cc1cc([N+](=O)[O-])ccc1-2
inactive: [1] 30.1 µM | [2] 36.6 µM | [3] > 100 µM | [4] 76.2 µM | [5] 55 µM | [6] 41.2 µM | [7] 19.3 µM | [8] 32.3 µM | [9] 48 µM | [10] 17.8 µM | [11] 50.9 µM | [12] 57.4 µM | [13] 42 µM | [14] 61.9 µM | [15] 41.7 µM | [16] 43 µM | [18] 89.3 µM | [19] 50 µM

Cc1cc(S(=O)(=O)NC2=Nc3cccc(F)c3CN2)c(S)cc1Cl
inactive: [1] > 100 µM | [2] > 100 µM | [3] 74.5 µM | [4] 96.8 µM | [6] 50.9 µM | [7] 61.7 µM | [8] > 100 µM | [9] 66.4 µM | [10] > 100 µM | [11] 36.8 µM | [12] > 100 µM | [13] 61 µM | [14] 56.2 µM | [15] 24.8 µM | [16] 95.9 µM | [17] 35.6 µM | [18] > 100 µM | [19] 62.1 µM

Cc1cc(S(=O)(=O)NC2=NNC(C)CN2)c(S)cc1Cl (stereo not given)
inactive: [1] 49.3 µM | [2] 56.8 µM | [3] 75.7 µM | [4] > 100 µM | [5] 27 µM | [6] 18.4 µM | [7] 35.8 µM | [8] 62.2 µM | [9] 39.6 µM | [10] 45.2 µM | [11] 54.2 µM | [12] 93.3 µM | [13] 32.1 µM | [14] 63.7 µM | [15] 20.1 µM | [16] 41.6 µM | [17] 21 µM | [18] 80.5 µM | [19] 51.2 µM

CSc1ncnc2c1cnn2Cc1cnnn1COCC(O)CO (stereo not given)
inactive: [1] > 100 µM | [2] > 100 µM | [3] > 100 µM | [4] > 100 µM | [5] > 100 µM | [6] > 100 µM | [7] > 100 µM | [8] > 100 µM | [9] > 100 µM | [10] > 100 µM | [12] > 100 µM | [13] > 100 µM | [14] > 100 µM | [15] > 100 µM | [16] > 100 µM | [17] > 100 µM | [18] > 100 µM | [19] > 100 µM

Cc1cn(CCCCCCC2=NCCCN2)c(=O)[nH]c1=O
inactive: [1] > 100 µM | [2] > 100 µM | [3] > 100 µM | [5] > 100 µM | [6] > 100 µM | [7] > 100 µM | [8] > 100 µM | [9] > 100 µM | [10] > 100 µM | [11] > 100 µM | [12] > 100 µM | [13] > 100 µM | [14] > 100 µM | [15] > 100 µM | [16] > 100 µM | [17] > 100 µM | [18] > 100 µM | [19] > 100 µM

O=C1NC(N2CCCCC2)=N/C1=C\c1ccccc1
inactive: [1] > 100 µM | [2] > 100 µM | [3] > 100 µM | [4] > 100 µM | [6] > 100 µM | [7] > 100 µM | [8] > 100 µM | [9] > 100 µM | [10] > 100 µM | [12] > 100 µM | [13] > 100 µM | [14] > 100 µM | [15] > 100 µM | [16] > 100 µM | [17] > 100 µM | [18] > 100 µM | [19] > 100 µM

CCOC(=O)c1c(Nc2ccccc2)sc2cccnc12
inactive: [1] 18.7 µM | [2] 37.2 µM | [3] 28.7 µM | [4] 15.1 µM | [5] 8.36 µM | [6] 18.2 µM | [7] 7.76 µM | [8] 6.56 µM | [9] 6.73 µM | [10] 5.68 µM | [11] 2.25 µM | [12] 12.4 µM | [13] 25.1 µM | [14] 11.1 µM | [15] 2.05 µM | [16] 20.8 µM | [17] 17.7 µM | [18] 9.18 µM | [19] 11.9 µM
